These results are taken from patent US7553867B2, “Furan or thiophene derivative and medicinal use thereof” (Takeda Pharmaceutical Company Limited, priority 2002, dated 2009).

In one data set the target is T1, PPARα-RXRα heterodimer (Homo sapiens, UniProt Q07869).
T1 construct: expressed in transfected cells; host or cells: COS-1 (transient; pMCMVneo-hPPARα + pMCMVneo-hRXRα)
T1 sequence (Q07869 1-468): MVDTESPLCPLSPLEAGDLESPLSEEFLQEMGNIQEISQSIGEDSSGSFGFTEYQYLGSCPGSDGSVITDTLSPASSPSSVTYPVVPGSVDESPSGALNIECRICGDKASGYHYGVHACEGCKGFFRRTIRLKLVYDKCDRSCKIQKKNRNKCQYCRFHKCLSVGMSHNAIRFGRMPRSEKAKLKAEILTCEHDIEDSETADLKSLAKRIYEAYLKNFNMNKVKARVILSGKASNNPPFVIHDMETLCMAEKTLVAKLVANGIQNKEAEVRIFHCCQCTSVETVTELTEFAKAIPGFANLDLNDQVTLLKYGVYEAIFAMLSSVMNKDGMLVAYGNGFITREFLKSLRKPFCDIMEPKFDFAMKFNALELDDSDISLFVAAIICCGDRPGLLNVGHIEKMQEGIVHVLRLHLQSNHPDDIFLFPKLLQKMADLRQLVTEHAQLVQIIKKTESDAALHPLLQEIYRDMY
T1 sequence (P19793 1-462 partner): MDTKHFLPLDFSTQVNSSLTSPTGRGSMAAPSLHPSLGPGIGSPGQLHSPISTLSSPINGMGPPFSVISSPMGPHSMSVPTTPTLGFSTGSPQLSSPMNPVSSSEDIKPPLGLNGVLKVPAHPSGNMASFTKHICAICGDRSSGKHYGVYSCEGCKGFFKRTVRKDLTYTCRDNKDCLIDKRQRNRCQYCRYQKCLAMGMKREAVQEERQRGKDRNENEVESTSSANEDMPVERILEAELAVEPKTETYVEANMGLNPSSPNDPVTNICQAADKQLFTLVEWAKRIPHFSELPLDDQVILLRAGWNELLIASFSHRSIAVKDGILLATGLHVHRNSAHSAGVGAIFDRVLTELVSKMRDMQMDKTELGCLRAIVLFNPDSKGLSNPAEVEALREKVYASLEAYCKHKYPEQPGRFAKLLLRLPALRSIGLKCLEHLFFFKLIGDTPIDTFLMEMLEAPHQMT
Nature of the data set: PPARα-RXRα heterodimer ligand activity (luciferase reporter, transfected COS-1 cells). It is filed as cell-based. Particulars: luciferase activity at 10 nM compound relative to control without compound as 1. The protocol:
(§1) At 18 to 24 hours after transfection carried out in Reference Example 12a, COS-1 cells were collected, suspended in DMEM medium [manufactured by Life Technologies, Inc., USA] containing 0.1% BSA (fatty acid-free) (produced by Waco Pure Chemicals Industries, Ltd.), and inoculated to each well of a 96-well white plate (produced by Corning, USA) at 1×10^4 cells/well in 80 μl. Subsequently, 20 μl of a test compound was added, and the plate was incubated at 37° C. in a carbon dioxide gas incubator for 36 to 48 hours. After removal of the medium from the 96-well white plate, 40 μl of PicaGene LT 7.5 (produced by Waco Pure Chemicals Industries, Ltd.) diluted twofold with HBSS (HANKS' BALANCED SALT SOLUTION) (produced by BIO WHITTAKER) was added, and after stirring, the luciferase activity was determined using 1420 ARVO Multilabel Counter [produced by Wallac].
The fold induction was calculated from the luciferase activity for the well to which 10 nM of the compound is added, relative to the luciferase activity of a control to which the compound is not added as 1. Results are shown in [Table 3].
(§2) A COS-1 cell was inoculated in a cell culture flask (produced by Corning, USA) of 150 cm^2 at 5×10^6 cells/50 ml, and incubated under the conditions of 37° C. and 5% CO2 for 24 hours. Transfection was carried out with lipofectamine (produced by Invitrogen, USA). A transfection mixture solution was prepared by mixing 125 μl of lipofectamine, 100 μl of PLUS Reagent, 2.5 μg of pMCMVneo-hPPARα (obtained in Reference Example 11a), 2.5 μg of pMCMVneo-hRXRα (obtained in Reference Example 4a), 5 μg of reporter plasmid pGL3-4ERPP-TK neo (obtained in Reference Example 5a) and 5 μg of pRL-tk [produced by Promega, USA] with 5 ml of opti-MEM (produced by Invitrogen, USA). To COS-1 cell washed with opti-MEM, the above-mentioned transfection mixture solution and 20 ml of opti-MEM were added, and then incubated under the conditions of 37° C. and 5% CO2 for 3 hours. Then, 25 ml of DMEM medium [manufactured by Life Technologies, Inc., USA] containing 0.1% fatty acid-free bovine serum albumin (BSA) (produced by Waco Pure Chemicals Industries, Ltd.) was added thereto, and then incubated under the conditions of 37° C. and 5% CO2 for 18 to 24 hours.

The next data set addresses T2, PPARδ-RXRα heterodimer (Homo sapiens, UniProt Q03181).
T2 construct: expressed in transfected cells; host or cells: COS-1 (transient; pMCMVneo-hPPARδ + pMCMVneo-hRXRα)
T2 sequence (Q03181 1-441): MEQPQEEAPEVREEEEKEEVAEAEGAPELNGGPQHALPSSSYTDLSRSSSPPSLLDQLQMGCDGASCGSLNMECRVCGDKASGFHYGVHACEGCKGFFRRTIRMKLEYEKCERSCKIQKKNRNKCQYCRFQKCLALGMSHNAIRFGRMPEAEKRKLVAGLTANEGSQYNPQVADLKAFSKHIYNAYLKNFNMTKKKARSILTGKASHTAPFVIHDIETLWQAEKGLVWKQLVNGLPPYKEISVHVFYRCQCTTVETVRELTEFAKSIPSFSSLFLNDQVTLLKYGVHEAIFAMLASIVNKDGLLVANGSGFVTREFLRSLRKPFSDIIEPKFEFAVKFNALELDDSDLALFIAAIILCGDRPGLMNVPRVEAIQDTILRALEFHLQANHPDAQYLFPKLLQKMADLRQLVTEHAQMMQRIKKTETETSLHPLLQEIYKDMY
T2 sequence (P19793 1-462 partner): T1 sequence (P19793 1-462 partner)
The data set can be described thus: PPARδ-RXRα heterodimer ligand activity (luciferase reporter, transfected COS-1 cells). It is filed as cell-based. As to conditions: luciferase activity at 10 nM test compound relative to non-administration group as 1. Here is the method:
as §1, with “Example 9a,” for “Example 12a,”, “0.1% fatty acid-free bovine serum albumin (BSA)” for “0.1% BSA (fatty acid-free)”, “incubated under the conditions of” for “incubated at”, “C. and 5% CO2” for “C. in a carbon dioxide gas incubator”, “of PicaGene.” for “of PicaGene”
The fold induction was calculated from the luciferase activity for addition of each 10 nM of the test compound relative to the luciferase activity of the test compound non-administration group as 1. Results are shown in [Table 2].
as §2, with “ml, and the plate was incubated under” for “ml, and incubated under”, “μg of pMCMVneo-hPPARδ (obtained in” for “μg of pMCMVneo-hPPARα (obtained in”, “Reference Example 3a), 2.5 μg” for “Reference Example 11a), 2.5 μg”, “USA). To the COS-1 cell” for “USA). To COS-1 cell”

Another data set deals with T3, human GPR40 (Homo sapiens, UniProt O14842).
T3 construct: expressed in transfected cells; host or cells: CHO cell strain (No. 104)
T3 sequence (O14842 whole entry): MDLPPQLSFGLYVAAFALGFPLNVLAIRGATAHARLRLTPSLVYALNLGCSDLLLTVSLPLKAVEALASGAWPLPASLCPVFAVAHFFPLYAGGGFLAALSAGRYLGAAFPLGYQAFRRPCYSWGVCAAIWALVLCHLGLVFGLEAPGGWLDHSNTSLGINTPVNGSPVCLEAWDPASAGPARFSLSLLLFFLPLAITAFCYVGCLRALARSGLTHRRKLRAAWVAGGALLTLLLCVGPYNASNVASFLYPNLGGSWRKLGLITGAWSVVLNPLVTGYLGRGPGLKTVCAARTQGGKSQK
The data set can be described thus: Receptor function regulating action (agonist action) for GPR40, intracellular calcium by FLIPR in CHO cells. As to conditions: CHO cells expressing human GPR40; change of fluorescence intensity at 30 seconds after reaction initiation. It is filed as cell-based. The protocol:
CHO cell strain (No. 104) which have had expressed human GPR40 was diluted to contain 3×10^4 cells/100 μL, and added to a Black walled 96-well plate (Costar) at 100 μL/well, and incubated overnight in CO2 incubator. Change of intracellular calcium concentration was measured with FLIPR (Molecular Device). The method is as follows. 50 μg of Fluo-3AM (DOJIN) was dissolved in 21 μL of DMSO (DOJIN), and the same amount of 20% pluronic acid (Molecular Probes) was further added thereto, and the mixture was mixed. The mixture was added to 10.6 mL of an assay buffer [prepared by adding 10 mL of solution which was produced by adding 20 mL of 1 M HEPES (pH 7.4) (DOJIN) to 1 L of HBSS (Invitrogen), dissolving 710 mg of probenecid (Sigma) in 5 mL of 1N NaOH, and further adding 5 mL of the above-mentioned HBSS/HEPES solution thereto and mixing it.] containing 105 μL of fetal bovine serum, to give a fluorescent dye solution. The medium of the cell plate was removed, and immediately, the fluorescent dye solution was added at 100 μL/well, and incubated in CO2 incubator for 1 hour, allowing the fluorescent dye to be incorporated into the cells. The cells after incubation were washed with the above-mentioned assay buffer. The compound to be added to the cells was diluted with the assay buffer to each concentration, added to the plate for the test sample. After conducting the above-mentioned pretreatment, intracellular calcium concentration change after adding the compound was measured in FLIPR to investigate the agonist action. By dose-response curve with the change of fluorescence intensity value at 30 seconds after reaction initiation, EC50 value was calculated.

Regarding `Cc1oc(-c2ccc(F)cc2)cc1C(=O)Nc1cccc(CSCC(=O)O)c1` [Example 1, [(3{[5-(4-Fluorophenyl)-2-methyl-3-furoyl]amino}benzyl)thio]acetic acid], the fold induction at 0.01 µM at PPARα-RXRα heterodimer turned out to be 10.2.

Molecule `CC(C)c1oc(-c2ccc(C(F)(F)F)cc2)cc1C(=O)Nc1cccc(CSCC(=O)O)c1` [Example 2(1), {[3-({2-Isopropyl-5-[4-(trifluoromethyl)phenyl]-3-furoyl}amino)benzyl]thio}acetic acid] had a fold induction at 0.01 µM at PPARα-RXRα heterodimer of 10.9.

For `CCc1oc(-c2ccc(C(F)(F)F)cc2)cc1COc1cccc(CSCC(=O)O)c1` [Example 5(5)], the fold induction at 0.01 µM on PPARα-RXRα heterodimer came to 10.1.

For the molecule `CCc1oc(-c2ccc(C(F)(F)F)cc2)cc1COc1ccc(CCC(=O)O)c(C)c1` [Example 5(9), 3-[4-({2-Ethyl-5-[4-(trifluoromethyl)phenyl]-3-furyl}methoxy)-2-methylphenyl]propionic acid], the melting point fell in the range of 95 to 97 °C. This molecule returned a fold induction at 0.01 µM on PPARδ-RXRα heterodimer of 6.7.

On to `Cc1oc(-c2ccc(F)cc2)cc1COc1cccc(CSCC(=O)O)c1` [Example 6(1), [(3-{[5-(4-Fluorophenyl)-2-methyl-3-furyl]methoxy}benzyl)thio]acetic acid], for which the melting point lay within 120 to 122 °C. The fold induction at 0.01 µM at PPARα-RXRα heterodimer turned out to be 8.9.

At PPARα-RXRα heterodimer, `Cc1oc(-c2ccc(C(F)(F)F)cc2)cc1COc1cccc(CSCC(=O)O)c1` [Example 6(2), {[3-({2-Methyl-5-[4-(trifluoromethyl)phenyl]-3-furyl}methoxy)benzyl]thio}acetic acid] showed a fold induction at 0.01 µM of 9.2.

`Cc1cc(OCc2cc(-c3ccc(C(F)(F)F)cc3)oc2C)ccc1CCC(=O)O` [Example 6(4), 3-[2-Methyl-4-({2-methyl-5-[4-(trifluoromethyl)phenyl]-3-furyl}methoxy)phenyl]propionic acid] came in with a melting point of 140 to 141 °C. Besides, on human GPR40, the EC50 was found to be 180 nM. In addition, the fold induction at 0.01 µM at PPARδ-RXRα heterodimer was 7.4.

In the case of `Cc1cc(OCCCc2cc(-c3ccc(C(F)(F)F)cc3)oc2C)ccc1CCC(=O)O` [Example 6(24), 3-[2-Methyl-4-(3-{2-methyl-5-[4-(trifluoromethyl)phenyl]-3-furyl}propoxy)phenyl]propionic acid], the melting point fell in the range of 125 to 126 °C. The fold induction at 0.01 µM at PPARδ-RXRα heterodimer turned out to be 6.8.

With `CCc1oc(-c2ccc(C(F)(F)F)cc2)cc1CCCOc1cccc(CC(=O)O)c1` [Example 6(26), [3-(3-{2-Ethyl-5-[4-(trifluoromethyl)phenyl]-3-furyl}propoxy)phenyl]acetic acid], the melting point fell in the range of 113 to 114 °C. For the same molecule, on PPARδ-RXRα heterodimer, the fold induction at 0.01 µM was determined as 5.6.

`Cc1oc(-c2ccc(F)cc2)cc1COc1cccc(CSC(C)(C)C(=O)O)c1` [Example 6, 2-[(3-{[5-(4-Fluorophenyl)-2-methyl-3-furyl]methoxy}benzyl)thio]-2-methylpropionic acid] showed a fold induction at 0.01 µM on PPARα-RXRα heterodimer of 9.3.
